Measurements: ChEMBL document CHEMBL1201862, “PubChem BioAssay data set” (2004)
Calls of active or inactive are those of the source.

Tests used:
[1] = viability loss in HeLa cells – cytotoxicity control for MgcRacGAP inhibitor project, dose response (AID 624300); format: functional
[2] = target: T1, Rac GTPase-activating protein 1 (Homo sapiens, UniProt Q9H0H5); assay: blockers of MgcRacGAP-driven Rac1 GTP hydrolysis – biochemical, ADP Hunter fluorescence, primary and confirmatory, confirmation (AID 624330); format: functional
T1 sequence (Q9H0H5 whole entry): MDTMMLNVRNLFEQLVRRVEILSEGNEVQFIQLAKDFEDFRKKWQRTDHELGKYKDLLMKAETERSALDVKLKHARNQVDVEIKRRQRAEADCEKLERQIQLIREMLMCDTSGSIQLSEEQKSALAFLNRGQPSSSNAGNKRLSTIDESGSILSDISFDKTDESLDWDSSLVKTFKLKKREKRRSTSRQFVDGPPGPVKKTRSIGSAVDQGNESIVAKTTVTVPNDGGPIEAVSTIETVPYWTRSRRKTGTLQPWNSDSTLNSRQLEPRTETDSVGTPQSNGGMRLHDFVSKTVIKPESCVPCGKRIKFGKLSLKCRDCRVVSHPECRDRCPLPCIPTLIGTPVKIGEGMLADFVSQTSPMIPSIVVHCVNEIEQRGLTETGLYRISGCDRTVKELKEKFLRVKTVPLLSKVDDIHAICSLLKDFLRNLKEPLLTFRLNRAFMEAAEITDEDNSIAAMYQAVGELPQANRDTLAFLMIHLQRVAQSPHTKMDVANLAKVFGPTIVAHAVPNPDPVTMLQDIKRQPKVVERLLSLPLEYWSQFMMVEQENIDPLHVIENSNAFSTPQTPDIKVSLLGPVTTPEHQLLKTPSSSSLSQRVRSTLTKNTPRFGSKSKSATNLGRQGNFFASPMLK

[3] = blockers of bursicon-stimulated LGR2 cAMP reporter – cell-based, HEK293, CRE-luciferase reporter, cherry pick, set 2, dose response (AID 743343); format: functional;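 also: transfected cells were stimulated with diluted bursicon conditioned medium after compound addition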
[4] = target: T2, Adenosylmethionine-8-amino-7-oxononanoate aminotransferase (Mycobacterium tuberculosis, UniProt P9WQ81); assay: Mycobacterium tuberculosis BioA enzyme inhibitor Measured in Biochemical System Using Plate Reader - 2163-02_Inhibitor_Dose_CherryPick_Activity.; format: functional, Mycobacterium tuberculosis UT205
T2 sequence (P9WQ81 whole entry): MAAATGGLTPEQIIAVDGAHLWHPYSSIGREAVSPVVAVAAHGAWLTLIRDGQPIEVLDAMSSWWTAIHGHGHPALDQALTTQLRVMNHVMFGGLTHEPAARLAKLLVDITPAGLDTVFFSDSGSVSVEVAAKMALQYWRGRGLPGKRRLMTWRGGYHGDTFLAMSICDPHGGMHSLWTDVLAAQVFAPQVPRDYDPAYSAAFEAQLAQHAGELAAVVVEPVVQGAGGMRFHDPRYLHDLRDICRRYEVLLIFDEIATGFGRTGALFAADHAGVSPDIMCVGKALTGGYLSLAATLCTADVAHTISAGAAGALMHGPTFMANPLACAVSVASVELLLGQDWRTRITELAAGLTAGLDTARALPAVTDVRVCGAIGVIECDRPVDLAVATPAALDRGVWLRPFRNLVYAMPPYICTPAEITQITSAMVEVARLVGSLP

cells [5] = format: functional, cell-based
[6] = target: T3, Nuclear receptor subfamily 0 group B member 1 (Homo sapiens, UniProt P51843); format: functional, cell-based;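 also: HEK293T cells transfected with SF-1 and DAX-1 plus StAR promoter luciferase reporter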
T3 sequence (P51843 whole entry): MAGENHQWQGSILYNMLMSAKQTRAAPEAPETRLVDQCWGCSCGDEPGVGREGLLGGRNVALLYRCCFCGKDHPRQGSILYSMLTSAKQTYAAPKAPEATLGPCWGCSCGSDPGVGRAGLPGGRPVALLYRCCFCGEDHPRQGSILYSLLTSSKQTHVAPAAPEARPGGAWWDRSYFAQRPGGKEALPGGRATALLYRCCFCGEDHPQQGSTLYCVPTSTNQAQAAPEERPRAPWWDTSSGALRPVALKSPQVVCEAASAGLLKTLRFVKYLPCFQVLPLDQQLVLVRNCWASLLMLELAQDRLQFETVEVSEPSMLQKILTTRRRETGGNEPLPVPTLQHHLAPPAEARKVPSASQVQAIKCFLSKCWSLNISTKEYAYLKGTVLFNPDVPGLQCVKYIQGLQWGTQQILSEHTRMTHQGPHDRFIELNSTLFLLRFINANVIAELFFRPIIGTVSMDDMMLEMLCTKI

[7] = target: T4, Short transient receptor potential channel 4 (Mus musculus, UniProt Q9QUQ5); assay: block of DAMGO-driven TRPC4 calcium entry – cell-based, HEK293 TRPC4/mu-opioid, Fluo-4 calcium, dose response (AID 434942); format: functional;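 also: potency of inhibitors blocking the TRPC4 calcium response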
T4 sequence (Q9QUQ5 whole entry): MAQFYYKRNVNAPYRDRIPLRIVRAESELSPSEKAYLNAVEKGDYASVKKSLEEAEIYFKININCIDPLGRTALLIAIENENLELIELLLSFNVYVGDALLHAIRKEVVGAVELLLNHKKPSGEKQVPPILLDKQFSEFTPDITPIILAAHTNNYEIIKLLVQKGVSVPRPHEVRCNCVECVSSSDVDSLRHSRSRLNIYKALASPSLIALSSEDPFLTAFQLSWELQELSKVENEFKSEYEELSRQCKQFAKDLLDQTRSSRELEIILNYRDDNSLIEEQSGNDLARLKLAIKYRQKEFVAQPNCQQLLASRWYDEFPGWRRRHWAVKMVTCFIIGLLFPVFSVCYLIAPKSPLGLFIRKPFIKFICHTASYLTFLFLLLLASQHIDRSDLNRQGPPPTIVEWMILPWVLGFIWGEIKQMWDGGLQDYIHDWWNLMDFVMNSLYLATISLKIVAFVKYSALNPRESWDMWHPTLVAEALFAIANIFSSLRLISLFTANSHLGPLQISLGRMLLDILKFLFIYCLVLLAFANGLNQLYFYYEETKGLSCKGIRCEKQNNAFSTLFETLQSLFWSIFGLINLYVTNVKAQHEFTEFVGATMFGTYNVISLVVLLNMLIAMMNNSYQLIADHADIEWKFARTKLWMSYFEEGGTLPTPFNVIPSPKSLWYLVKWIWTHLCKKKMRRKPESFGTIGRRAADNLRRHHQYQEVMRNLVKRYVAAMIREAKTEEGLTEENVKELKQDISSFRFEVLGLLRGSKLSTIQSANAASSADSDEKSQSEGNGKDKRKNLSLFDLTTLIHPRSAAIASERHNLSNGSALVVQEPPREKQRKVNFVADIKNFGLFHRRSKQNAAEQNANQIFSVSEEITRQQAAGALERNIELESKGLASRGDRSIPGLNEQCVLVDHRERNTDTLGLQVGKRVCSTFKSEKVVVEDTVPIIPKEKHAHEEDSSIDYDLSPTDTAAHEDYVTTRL

Protein Wnt-3a = Protein Wnt-3a (Mus musculus, UniProt P27467); assay: antagonism of Wnt3a pathway luciferase reporter – Wnt-LIGHT cells, luminescence, selectivity assay for Gli-SUFU antagonist project, dose response (AID 651570); format: functional; conditions: read-out: IC50_Mean;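 also: Wnt-LIGHT reporter cells stimulated with conditioned medium from Wnt3a-producing cells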
Prothrombin = Prothrombin (Homo sapiens, UniProt P00734); assay: Thrombin 1536 HTS Dose Response Confirmation. [Related pubchem assays: 1046 (Thrombin 1536 HTS; hits were confirmed in this assay)]; format: functional
cells [8] = format: functional, cell-based; remark: listed apart in the source
[9] = target: T5, Trace amine-associated receptor 1 (Homo sapiens, UniProt Q96RJ0); assay: Fluorescence-based cell-based high throughput dose response assay to identify agonists of the human trace amine associated receptor 1 (TAAR1).; format: functional
T5 sequence (Q96RJ0 whole entry): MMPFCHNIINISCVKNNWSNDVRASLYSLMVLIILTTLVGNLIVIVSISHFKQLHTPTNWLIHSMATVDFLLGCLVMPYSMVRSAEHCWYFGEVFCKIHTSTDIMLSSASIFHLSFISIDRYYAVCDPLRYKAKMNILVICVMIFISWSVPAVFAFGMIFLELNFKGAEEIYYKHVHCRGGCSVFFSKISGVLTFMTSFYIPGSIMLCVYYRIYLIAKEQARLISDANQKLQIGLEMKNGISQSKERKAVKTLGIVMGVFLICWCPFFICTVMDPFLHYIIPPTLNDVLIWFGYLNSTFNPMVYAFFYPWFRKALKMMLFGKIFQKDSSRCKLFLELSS

[10] = target: T5, Trace amine-associated receptor 1; assay: Counterscreen for agonists of the human trace amine associated receptor 1 (hTAAR1): Fluorescence-based cell-based high throughput dose response assay to identify hTAAR1 agonist that also desensitize TAAR1 receptor response.; format: functional
cells [11] = format: functional, cell-based; remark: listed apart in the source
[12] = target: Nuclear receptor subfamily 5 group A member 2 (Homo sapiens, UniProt O00482); format: functional, cell-based;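 also: HEK293T cells transfected with LRH-1 and a StAR promoter luciferase reporter; potency for inhibitors that lower LRH-1 driven reporter light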
Fatty acid synthase [13] = target: T6, Fatty acid synthase (Homo sapiens, UniProt P49327); assay: inhibition of human FAS-TE enzyme activity – biochemical, endpoint fluorescence intensity, uHTS hits, dose response (AID 624327); format: functional;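 also: fluorescence from hydrolysis of an O-methyl fluorescein acyl ester substrate by the enzyme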
Steroidogenic factor 1 = Steroidogenic factor 1 (Homo sapiens, UniProt Q13285); assay: Counterscreen for inverse agonists of the liver receptor homolog-1 (LRH-1; NR5A2): Luminescence-based cell-based high throughput dose response assay to identify inverse agonists of the Steroidogenic Factor 1 Nuclear Receptor (SF1; NR5A1).; format: functional
[14] = nonselective StAR promoter luciferase inhibitors – cell-based, luminescence, luciferase reporter, counter-screen for LRH-1 inverse agonist project, dose response (AID 651969); format: functional
Fatty acid synthase [15] = target: T6, Fatty acid synthase; assay: inhibition of human FAS-TE enzyme activity – biochemical, kinetic fluorescence intensity, dose response (AID 624326); format: functional;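 also: rate of fluorescence rise from hydrolysis of a fluorogenic O-methyl fluorescein ester substrate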

T6 sequence (P49327 whole entry): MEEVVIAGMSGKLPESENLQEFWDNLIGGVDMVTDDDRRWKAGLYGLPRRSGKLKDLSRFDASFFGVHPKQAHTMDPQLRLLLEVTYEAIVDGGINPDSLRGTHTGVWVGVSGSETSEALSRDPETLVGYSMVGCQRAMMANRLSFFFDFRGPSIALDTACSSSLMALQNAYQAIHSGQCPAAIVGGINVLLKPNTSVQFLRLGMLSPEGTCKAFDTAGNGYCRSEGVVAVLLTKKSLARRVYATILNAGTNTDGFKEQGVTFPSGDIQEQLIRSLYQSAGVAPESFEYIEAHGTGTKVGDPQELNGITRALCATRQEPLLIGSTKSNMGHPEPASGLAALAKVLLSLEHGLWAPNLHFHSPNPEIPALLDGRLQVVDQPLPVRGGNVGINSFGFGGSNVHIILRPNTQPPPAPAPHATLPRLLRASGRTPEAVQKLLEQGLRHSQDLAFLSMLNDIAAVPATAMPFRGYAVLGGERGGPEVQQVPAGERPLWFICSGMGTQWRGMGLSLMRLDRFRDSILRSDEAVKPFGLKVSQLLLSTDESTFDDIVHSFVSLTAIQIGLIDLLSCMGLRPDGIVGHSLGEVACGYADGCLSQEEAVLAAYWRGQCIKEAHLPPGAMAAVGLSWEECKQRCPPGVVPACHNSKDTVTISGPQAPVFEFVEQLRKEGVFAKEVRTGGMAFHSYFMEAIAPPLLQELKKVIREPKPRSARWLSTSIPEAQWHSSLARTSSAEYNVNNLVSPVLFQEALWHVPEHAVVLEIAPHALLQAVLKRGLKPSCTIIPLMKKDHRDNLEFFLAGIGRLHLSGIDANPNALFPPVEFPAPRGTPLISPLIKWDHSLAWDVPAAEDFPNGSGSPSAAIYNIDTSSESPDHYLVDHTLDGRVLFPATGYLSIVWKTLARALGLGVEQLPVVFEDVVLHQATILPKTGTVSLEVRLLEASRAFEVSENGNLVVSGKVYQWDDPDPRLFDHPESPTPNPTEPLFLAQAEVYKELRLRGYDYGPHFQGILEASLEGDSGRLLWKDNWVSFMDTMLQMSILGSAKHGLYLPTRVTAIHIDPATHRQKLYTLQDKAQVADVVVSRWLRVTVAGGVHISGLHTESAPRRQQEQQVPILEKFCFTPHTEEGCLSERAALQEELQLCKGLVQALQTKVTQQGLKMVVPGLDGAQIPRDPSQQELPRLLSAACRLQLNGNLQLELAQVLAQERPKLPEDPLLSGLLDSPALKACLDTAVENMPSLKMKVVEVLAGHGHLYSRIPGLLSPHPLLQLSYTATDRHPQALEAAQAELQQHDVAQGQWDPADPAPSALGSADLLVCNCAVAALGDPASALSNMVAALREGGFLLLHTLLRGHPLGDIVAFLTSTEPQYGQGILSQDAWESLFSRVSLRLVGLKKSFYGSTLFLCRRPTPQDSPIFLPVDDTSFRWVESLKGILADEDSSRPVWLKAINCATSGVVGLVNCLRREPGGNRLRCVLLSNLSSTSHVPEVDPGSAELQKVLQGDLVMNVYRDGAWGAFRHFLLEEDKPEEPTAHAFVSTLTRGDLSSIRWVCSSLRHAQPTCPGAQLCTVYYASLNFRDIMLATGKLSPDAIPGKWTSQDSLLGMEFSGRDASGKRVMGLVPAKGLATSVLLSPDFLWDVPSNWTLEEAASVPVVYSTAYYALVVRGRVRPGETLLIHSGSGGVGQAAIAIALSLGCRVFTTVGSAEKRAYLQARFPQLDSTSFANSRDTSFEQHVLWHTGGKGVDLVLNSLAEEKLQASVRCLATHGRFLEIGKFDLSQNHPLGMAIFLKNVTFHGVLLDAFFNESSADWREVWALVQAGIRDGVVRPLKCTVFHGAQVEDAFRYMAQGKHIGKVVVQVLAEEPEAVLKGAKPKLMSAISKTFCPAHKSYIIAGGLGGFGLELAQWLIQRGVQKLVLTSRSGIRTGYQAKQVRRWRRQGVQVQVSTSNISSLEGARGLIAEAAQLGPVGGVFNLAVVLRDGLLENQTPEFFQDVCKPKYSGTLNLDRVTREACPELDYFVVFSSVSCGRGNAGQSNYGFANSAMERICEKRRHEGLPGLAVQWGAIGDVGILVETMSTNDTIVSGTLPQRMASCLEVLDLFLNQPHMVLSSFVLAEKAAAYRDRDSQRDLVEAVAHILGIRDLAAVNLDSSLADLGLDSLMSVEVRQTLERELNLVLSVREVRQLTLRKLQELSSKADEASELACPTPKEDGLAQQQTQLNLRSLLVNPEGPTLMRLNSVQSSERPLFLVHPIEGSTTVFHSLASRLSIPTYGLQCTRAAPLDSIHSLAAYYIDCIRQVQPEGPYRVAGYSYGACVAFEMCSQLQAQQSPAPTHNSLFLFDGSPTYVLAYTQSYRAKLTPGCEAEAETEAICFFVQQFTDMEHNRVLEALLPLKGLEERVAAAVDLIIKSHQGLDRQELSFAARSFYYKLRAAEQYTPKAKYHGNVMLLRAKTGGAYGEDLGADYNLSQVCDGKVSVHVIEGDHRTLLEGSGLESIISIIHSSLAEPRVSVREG
Nuclear receptor subfamily 5 group A member 2, sequence (O00482 whole entry): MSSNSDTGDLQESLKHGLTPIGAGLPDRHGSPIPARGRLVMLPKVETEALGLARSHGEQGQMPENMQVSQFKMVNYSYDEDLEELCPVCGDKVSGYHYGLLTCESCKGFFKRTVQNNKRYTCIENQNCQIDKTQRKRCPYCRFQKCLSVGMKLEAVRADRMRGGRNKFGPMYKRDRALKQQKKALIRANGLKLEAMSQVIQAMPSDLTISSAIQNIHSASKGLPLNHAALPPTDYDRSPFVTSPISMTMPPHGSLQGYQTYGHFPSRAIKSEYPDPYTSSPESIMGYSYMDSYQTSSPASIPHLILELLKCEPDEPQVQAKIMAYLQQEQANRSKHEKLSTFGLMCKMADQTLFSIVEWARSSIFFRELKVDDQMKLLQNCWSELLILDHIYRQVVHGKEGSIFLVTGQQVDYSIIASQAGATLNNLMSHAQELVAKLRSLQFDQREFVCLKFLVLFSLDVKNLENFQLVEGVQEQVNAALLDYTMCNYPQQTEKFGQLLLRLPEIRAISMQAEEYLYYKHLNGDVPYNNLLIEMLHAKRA
Protein Wnt-3a, sequence (P27467 whole entry): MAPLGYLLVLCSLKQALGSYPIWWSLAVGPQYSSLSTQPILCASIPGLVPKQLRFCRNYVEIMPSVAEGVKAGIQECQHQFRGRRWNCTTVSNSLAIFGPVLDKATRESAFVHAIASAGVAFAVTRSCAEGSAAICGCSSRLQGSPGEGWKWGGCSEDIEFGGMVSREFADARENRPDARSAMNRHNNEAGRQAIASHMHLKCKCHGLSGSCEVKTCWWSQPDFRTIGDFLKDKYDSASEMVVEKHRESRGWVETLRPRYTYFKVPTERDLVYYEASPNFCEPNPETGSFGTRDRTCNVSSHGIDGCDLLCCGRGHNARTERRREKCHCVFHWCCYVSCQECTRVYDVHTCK
Steroidogenic factor 1, sequence (Q13285 whole entry): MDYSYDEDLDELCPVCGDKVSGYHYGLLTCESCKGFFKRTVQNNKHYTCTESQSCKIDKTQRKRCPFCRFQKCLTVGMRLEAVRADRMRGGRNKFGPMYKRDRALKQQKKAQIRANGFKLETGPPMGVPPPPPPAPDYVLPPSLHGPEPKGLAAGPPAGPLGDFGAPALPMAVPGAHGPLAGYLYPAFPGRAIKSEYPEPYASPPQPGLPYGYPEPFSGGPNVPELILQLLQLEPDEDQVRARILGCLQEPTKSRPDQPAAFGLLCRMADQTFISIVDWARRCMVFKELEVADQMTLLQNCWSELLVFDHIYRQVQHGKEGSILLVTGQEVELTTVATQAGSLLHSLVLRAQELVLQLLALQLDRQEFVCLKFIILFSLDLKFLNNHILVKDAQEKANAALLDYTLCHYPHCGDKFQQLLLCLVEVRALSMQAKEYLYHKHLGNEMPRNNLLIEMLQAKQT

Structure (SMILES): COc1cc(/C=C2\C(=O)N(C)C(=S)N2C)ccc1O
- CC50 [1]: 100 µM (active)
- IC50 [2]: 31.9 µM (active)

Structure (SMILES): CCc1ccc2ncc(S(=O)(=O)c3ccc(C)c(C)c3)c(N3CCCC3)c2c1
- AC50 [3]: 48.2 µM (active)

Structure (SMILES): O=C(C1CCCN(S(=O)(=O)c2cccnc2)C1)N1CCn2c1nc1ccccc12 (stereo not given)
- AC50 [4]: 14 µM (active)

Structure (SMILES): CN1CCN(C(=O)c2cc(COc3ccccc3)on2)[C@@H](c2ccccc2)C1
- IC50 (cells [5]): > 67.6 µM (inactive)
- IC50 [6]: > 67.6 µM (inactive)

Structure (SMILES): CNc1nc(NCc2ccccc2)c2ccccc2n1
- EC50 [7]: 1.19 µM (active)
- IC50 (Protein Wnt-3a): 43.1 µM (inactive)

Structure (SMILES): COc1ccc(C2c3c(-c4cc(Cl)c(C)cc4O)n[nH]c3C(=O)N2Cc2cccnc2)cc1OC (stereo not given)
- IC50 (Prothrombin): > 50 µM (not active)
- AC50 [4]: 0.102 µM (active)

Structure (SMILES): CNCC(C)c1ccccc1 (stereo not given)
- IC50 (cells [8]): > 29.9 µM (inactive)
- EC50 [9]: 0.598 µM (active)
- IC50 [10]: 3.54 µM (active)
- EC50 (cells [11]): > 29.9 µM (inactive)

Structure (SMILES): O=C(Nc1ccc(Cc2ccncc2)cc1)c1cccc([N+](=O)[O-])c1
- IC50 [12]: 35.9 µM (inactive)
- IC50 (Fatty acid synthase [13]): 7.76 µM (active)
- IC50 (Steroidogenic factor 1): 1.33 µM (active)
- IC50 [14]: 35.9 µM (inactive)
- IC50 (Fatty acid synthase [15]): 10.5 µM (active)

Structure (SMILES): CCCN1CCN(C(=O)C2CCN(c3nnc(C)c4c(C)n(-c5ccc(C)cc5)nc34)CC2)CC1
- AC50 [4]: 12.3 µM (active)
